The values below come from patent publication US7008636B2, “2,3,5-substituted biphenyls useful in the treatment of insulin resistance and hyperglycemia” (Wyeth, priority 1998, dated 2006).

Series [1] concerns the target T1, recombinant, human protein tyrosine phosphatase (PTP) 1B (hPTP1B) (Homo sapiens, UniProt P18031).
T1 construct: made in house
T1 sequence (P18031 1-435): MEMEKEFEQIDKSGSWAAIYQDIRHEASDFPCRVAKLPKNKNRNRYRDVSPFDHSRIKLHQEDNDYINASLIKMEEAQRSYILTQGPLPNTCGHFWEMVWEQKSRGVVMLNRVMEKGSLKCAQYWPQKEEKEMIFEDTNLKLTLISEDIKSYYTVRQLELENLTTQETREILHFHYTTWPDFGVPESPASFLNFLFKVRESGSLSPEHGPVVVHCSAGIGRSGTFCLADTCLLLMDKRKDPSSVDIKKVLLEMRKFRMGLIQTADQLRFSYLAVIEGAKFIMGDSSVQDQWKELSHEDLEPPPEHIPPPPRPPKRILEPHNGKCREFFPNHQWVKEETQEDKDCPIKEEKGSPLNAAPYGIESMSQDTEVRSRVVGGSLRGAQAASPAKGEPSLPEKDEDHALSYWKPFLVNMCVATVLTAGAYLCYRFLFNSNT
In words: Inhibition of tri-phosphorylated insulin receptor dodecaphosphopeptide dephosphorylation by hPTP1B. To be noted: 50 μM IR triphosphopeptide substrate, 5 min preincubation and 5 min reaction at 37° C., malachite green-ammonium molybdate phosphate detection. The series is classed as biochemical.

pIC50: −log10 of the molar value.

A word on the pIC50: it is the negative decadic logarithm of the IC50, by convention in mol/L. What is called melting point is the temperature, or range, at which the solid turns liquid. Turning to `CCCCCCCCCCCCNC(=O)c1cc(-c2ccccc2)c(OCC(=O)O)c(-c2ccccc2)c1` [Example 8, (5′-Dodecylcarbamoyl-[1,1′;3′,1″]terphenyl-2′-yloxy)-acetic acid], the melting point was in the range of 150 to 153 °C. Besides, the pIC50 in series [1] was 6.71. For `CCCCCCCCCCCCNC(=O)c1cc(-c2ccc(OC)cc2)c(OCC(=O)O)c(-c2ccc(OC)cc2)c1` [Example 9, (5′-Dodecylcarbamoyl-4,4″-dimethoxy-[1,1′;3′,1″]terphenyl-2′-yloxy)-acetic acid] the same measures were 65 to 68 °C and 6.78. For `CCCCCCCCCCCCNC(=O)c1cc(-c2ccc(OC)cc2)c(OCC(=O)O)c(-c2cccc(Cl)c2)c1` [Example 10, (3-Chloro-5′-dodecylcarbamoyl-4″-methoxy-[1,1°;3′]terphenyl-2′-yloxy)-acetic acid] the same measures were 114 to 117 °C and 6.99. `CCCCCCCCCCCCNC(=O)c1cc(-c2cccc(OC)c2)c(OCC(=O)O)c(-c2cccc(OC)c2)c1` [Example 11, (5′-Dodecylcarbamoyl-3,3″-dimethoxy-[1,1′;3′1″]terphenyl-2′-yloxy)-acetic acid]: the melting point fell in the range of 57 to 58 °C. Besides, in series [1], the pIC50 is 6.94. With `CC(C)(C)c1ccc(COCCCCCCNC(=O)c2cc(-c3cccc(C(F)(F)F)c3)c(OCC(=O)O)c(-c3cccc(C(F)(F)F)c3)c2)cc1` [Example 13, {5′-[6-(4-tert-Butyl-benzyloxy)-hexylcarbamoyl]-3,3″-bis-trifluoromethyl-[1,1′;3′,1″]terphenyl-2′-yloxy}-acetic acid], the melting point was in the range of 156 to 158 °C. Also, in series [1], the pIC50 is 6.49. For `O=C(O)COc1c(-c2cccc(C(F)(F)F)c2)cc(C(=O)NCCCCCCOCc2ccc(OCc3ccccc3)cc2)cc1-c1cccc(C(F)(F)F)c1` [Example 14, {5′-[6-(4-Benzyloxy-benzyloxy)-hexylcarbamoyl]-3,3″-bis-trifluoromethyl-[1,1′;3′1″]terphenyl-2′-yloxy}-acetic acid] the same measures were 127 to 130 °C and 6.44.

`COc1ccc(-c2cc(C(=O)NCCCCCCCCc3ccccc3)cc(-c3cccc(Cl)c3)c2OCC(=O)O)cc1` [Example 15, [3″-Chloro-4-methoxy-5′-(8-phenyl-octylcarbamoyl)-[1,1′;3′,1″]terphenyl-2′-yloxy]-acetic acid] registered a melting point of 79.2 to 80.5 °C. Moreover, the pIC50 in series [1] is 6.73.

The compound `COc1ccc(-c2cc(C(=O)N(C)CCCCCCCCc3ccccc3)cc(-c3cccc(Cl)c3)c2OCC(=O)O)cc1` [Example 16, {3″-Chloro-4-methoxy-5′-[methyl-(8-phenyl-octyl)-carbamoyl]-[1,1′;3′, 1″]terphenyl-2′-yloxy}-acetic acid] returned a melting point of 66.8 to 67.5 °C. Further, the pIC50 in series [1] was 6.46.

Turning to `COc1ccc(-c2cc(C(=O)NCCCC3CCCC3)cc(-c3cccc(C(F)(F)F)c3)c2OCC(=O)O)cc1` [Example 66, [5′-(3-Cyclopentyl-propylcarbamoyl)-4″-methoxy-3-trifluoromethyl-[1,1′;3′,1″]-terphenyl-2′-yloxy]acetic acid], the melting point was > 114 °C (dec.). On the same count and under the same terms, in the case of `COc1ccc(-c2cc(C(=O)N(CCc3ccccc3)Cc3ccccc3)cc(-c3cccc(C(F)(F)F)c3)c2OCC(=O)O)cc1` [Example 67, [5′-(Benzyl-phenethyl-carbamoyl)-4″-methoxy-3-trifluoromethyl-[1,1′;3′,1″]-terphenyl-2′-yloxy]acetic acid] it was > 82 °C (dec.); in that of `COc1ccc(-c2cc(C(=O)N(CCc3ccccc3)Cc3ccccc3)cc(-c3ccccc3F)c2OCC(=O)O)cc1` [Example 68, [5′-(Benzyl-phenethyl-carbamoyl)-2-fluoro-4″-methoxy-[1,1′;3′,1″]-terphenyl-2′-yloxy]acetic acid], > 73 °C (dec.); in that of `O=C(O)COc1c(Br)cc(C(=O)N(CCc2ccccc2)Cc2ccccc2)cc1-c1ccccc1F` [Example 69, [5-(Benzylphenethyl-carbamoyl)-3-bromo-2′-fluoro-biphenyl-2-yloxy]acetic acid], > 85 °C (dec.). Same read-out and setting: in the case of `COc1ccc(-c2cc(C(=O)NCCc3ccccn3)cc(-c3ccccc3F)c2OCC(=O)O)cc1` [Example 70, [2-Fluoro-4″-methoxy-5′-(2-pyridin-2-yl-ethylcarbamoyl)-[1,1′;3′,1″]-terphenyl-2′-yloxy]acetic acid] it was > 102 °C (dec.); in that of `COc1ccc(-c2cc(C(=O)NCCCc3ccccc3)cc(-c3ccccc3F)c2OCC(=O)O)cc1` [Example 71, [2-Fluoro-4″-methoxy-5′-(3-phenyl-propylcarbamoyl)-[1,1′;3′,1″]-terphenyl-2′-yloxy]acetic acid], > 89 °C (dec.). As for `O=C(O)COc1c(Br)cc(C(=O)NCCc2ccccn2)cc1-c1ccccc1F` [Example 72, [3-Bromo-2′-fluoro-5-(2-pyridin-2-yl-ethylcarbamoyl)-biphenyl-2-yloxy]acetic acid], the melting point was > 154 °C (dec.).

Consider `O=C(O)COc1c(Br)cc(C(=O)NCCCc2ccccc2)cc1-c1ccccc1F` [Example 73, [3-Bromo-2′-fluoro-5-(3-phenyl-propylcarbamoyl)-biphenyl-2-yloxy]acetic acid], for which the melting point is > 90 °C (dec.).

Consider `COc1ccc(-c2cc(C(=O)NCCCC3CCCC3)cc(-c3ccccc3F)c2OCC(=O)O)cc1` [Example 74, [5′-(3-Cyclopentyl-propylcarbamoyl)-2-fluoro-4″-methoxy-[1,1′;3′,1″]-terphenyl-2′-yloxy]acetic acid], for which the melting point is > 97 °C (dec.). Same read-out and setting: in the case of `O=C(O)COc1c(Br)cc(C(=O)NCCCC2CCCC2)cc1-c1ccccc1F` [Example 75, [3-Bromo-5-(3-cyclopentyl-propylcarbamoyl)-2′-fluoro-biphenyl-2-yloxy]acetic acid] it was > 127 °C (dec.); in that of `COc1ccc(-c2cc(C(=O)NCCCCCCCCc3ccccc3)cc(-c3ccccc3F)c2OCC(=O)O)cc1` [Example 76, [2-Fluoro-4″-methoxy-5′-(8-phenyl-octylcarbamoyl)-[1,1′;3′,1″]-terphenyl-2′-yloxy]acetic acid], > 84 °C (dec.); in that of `O=C(O)COc1c(Br)cc(C(=O)NCCCCCCCCc2ccccc2)cc1-c1ccccc1F` [Example 77, [3-Bromo-2′-fluoro-5-(8-phenyl-octylcarbamoyl)-biphenyl-2-yloxy]acetic acid], > 79 °C (dec.).

With `COc1ccc(-c2cc(C(=O)NCCCCCCc3ccccc3)cc(-c3ccccc3F)c2OCC(=O)O)cc1` [Example 78, [2-Fluoro-4″-methoxy-5′-(6-phenyl-hexylcarbamoyl)-[1,1′;3′,1″]-terphenyl-2′-yloxy]acetic acid], the melting point was > 72 °C (dec.). Consider `O=C(O)COc1c(Br)cc(C(=O)NCCCCCCc2ccccc2)cc1-c1ccccc1F` [Example 79, [3-Bromo-2′-fluoro-5-(6-phenyl-hexylcarbamoyl)-biphenyl-2-yloxy]acetic acid], for which the melting point was > 84 °C (dec.). Same read-out and setting: to `CCCCCCCCCCCCNC(=O)c1cc(Br)c(OCCn2cnnn2)c(-c2cccc(OC)c2)c1` [Example 138, 5-Bromo-6-(2-tetrazol-1-yl-ethoxy)-3′-methoxy-biphenyl-3-carboxylic acid dodecylamide] belongs 100 to 101 °C; to `COc1ccc(-c2cc(C(=O)NCCCCCCc3ccccc3)cc(-c3cccc(C(F)(F)F)c3)c2OCC(=O)O)cc1` [Example 157, [4″-Methoxy-5′-(6-phenyl-hexylcarbamoyl)-3-trifluoromethyl-[1,1′;3′,1″]terphenyl-2′-yloxy]acetic acid], 153 to 159 °C. Same read-out and setting: in the case of `CCCCCCCCCCCCNC(=O)c1cc(Br)c(OCCn2ccnn2)c(-c2cccc(C(F)(F)F)c2)c1` [Example 181, 5-Bromo-6-(2-[1,2,3]triazol-1-yl-ethoxy)-3′-trifluoromethyl-biphenyl-3-carboxylic acid dodecylamide] it was 70.5 to 72.5 °C; in that of `CCCCCCCCCCCCNC(=O)c1cc(Br)c(OCCn2ncnn2)c(-c2cccc(C(F)(F)F)c2)c1` [Example 182, 5-Bromo-6-(2-tetrazol-2-yl-ethoxy)-3′-trifluoromethyl-biphenyl-3-carboxylic acid dodecylamide], 75.6 to 76.2 °C; in that of `CCCCCCCCCCCCNC(=O)c1cc(Br)c(OCCn2cnnn2)c(-c2cccc(C(F)(F)F)c2)c1` [Example 183, 5-Bromo-6-(2-tetrazol-1-yl-ethoxy)-3′-trifluoromethyl-biphenyl-3-carboxylic acid dodecylamide], 91.5 to 92.6 °C. Compound `CCCCCCCCCCCCNC(=O)c1cc(Br)c(OCCNC(N)=O)c(-c2cccc(C(F)(F)F)c2)c1` [Example 187, 5-Bromo-3′-trifluoromethyl-6-(2-ureido-ethoxy)-biphenyl-3-carboxylic acid dodecylamide] gave a melting point of 122.5 to 125.1 °C. On the same count and under the same terms, in the case of `CCCCCCCCCCCCNC(=O)c1cc(Br)c(OCCNC(=O)OC)c(-c2cccc(C(F)(F)F)c2)c1` [Example 188, [2-(3-Bromo-5-dodecylcarbamoyl-3′-trifluoromethyl-biphenyl-2-yloxy)-ethyl]-carbamic acid methyl ester] it was 79.6 to 80.5 °C.
